The results in this text go back to patent US20230255934A1, “NURR1 RECEPTOR MODULATORS AND USES THEREOF” (The Regents of the University of California, priority 2020, published 2023).

One data set deals with MN9D cells. The experiment in a line: CytoTox-Glo cytotoxicity assay. The class given is cell-based. Conditions: 24 h treatment, 10 μM unless stated. The method, then:
Cytotoxicity assays were carried out using the CytoTox-Glo Cytotoxicity Assay Kit (Promega) according to the manufacturer's instructions. Briefly, MN9D cells were resuspended in DMEM/F-12 with 5% FBS at 2·10^5 cells/ml and added to an equal volume of two-fold concentrated compound in the same media containing 0.2% DMSO (prepared by diluting DMSO stock of the compound in warm DMEM/F-12 with 5% FBS; for DMSO control equivalent volume of DMSO was used instead of the compound stock), and immediately re-plated onto poly-D-lysine pre-treated 96-well white-walled flat clear bottom plate (Corning cat #3903) at a density of 1·10^4 cells/well (100 μL/well), 3 replicas per compound. As a background (BG) control, for each of the compound (or DMSO) equivalent volume of compound mixed with DMEM/F-12+5% FBS was plated. After 24 h treatment at 37° C., in 5% C02 incubator, 50 μL of CytoTox-Glo™ Cytotoxicity Assay Reagent was added to each well, mixed briefly by orbital shaking and incubated for 15 min at ambient temperature. Luminescence signal corresponding to dead cells was measured using Biotek Synergy H4 hybrid microplate reader. After the measurement, 50 μL of Lysis Reagent was added to each well, mixed, incubated for 15 min at ambient temperature, and total luminescence was measured. The percentage of viable cells was then calculated as follows: Percent Viable Cells (%)=100% (Total cell luminescence (test compound)—Dead cell luminescence (test compound))/(Total cell luminescence (DMSO)—Dead cell luminescence (DMSO)).

A further data set has as its target T1, Nurr1 LBD Arg563Ala (Homo sapiens, UniProt P43354, R563A).
T1 construct: Mutants of LAP2 Nurr1 were prepared by GenScript starting from LAP2 Nurr1 vector; made in house
T1 sequence (P43354 with tags, fused parts or gaps R563A): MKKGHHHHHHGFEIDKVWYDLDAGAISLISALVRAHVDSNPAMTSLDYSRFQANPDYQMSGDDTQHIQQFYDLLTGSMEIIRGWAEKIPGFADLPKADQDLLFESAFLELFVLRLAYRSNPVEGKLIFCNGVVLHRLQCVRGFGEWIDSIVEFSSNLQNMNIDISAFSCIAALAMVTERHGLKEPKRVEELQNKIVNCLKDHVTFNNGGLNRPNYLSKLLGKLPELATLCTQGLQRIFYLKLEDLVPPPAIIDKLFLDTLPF
Put plainly: MST binding to Arg563Ala mutant Nurr1 LBD. Conditions: for Amplitude: Table 1, MST amplitude, R563A; for Response Amplitude: Table 2, MST, Arg563Ala. The method, then: (§1) The plasmid used for the expression of LAP2-tagged Nurr1 LBDs (LAP2 Nurr1) was prepared by GenScript (Piscataway, N.J.) as the product of gene synthesis and subcloning into pET-21a(+) Vector (GenScript) using the Ndel and Xhol sites within the MCS. Mutants of LAP2 Nurr1 were prepared by GenScript starting from LAP2 Nurr1 vector.
(§2) Concentration-dependent association of the indoles with the Nurr1 LBD was carried out using microscale thermophoresis. Stock solutions (10 mM in DMSO) of each indole were serially diluted (200 μM indole, 0.5× dilutions down to 0.0061 μM) in MST buffer (25 mM HEPES, pH 7.4, 150 mM NaCl, and 0.1% Pluronic F127) containing 2% DMSO. The dilutions were carried out with 4% DMSO in the MST buffer for a total of 16 concentrations. Equivalent volumes and concentrations of the fluorescently labeled Nurr1 LBD in MST buffer were added to each ligand dilution in the series to reach a final concentration of 75 nM labeled protein. After incubating for 20 minutes, the samples were loaded into Monolith NT.115 Capillaries (Nanotemper).
(§3) Data were collected using the Monolith NT.115 System (Nanotemper), with settings for all samples at 40% excitation power and 40% MST power. The initial fluorescence was recorded for 3 sec and the thermophoresis fluorescence response was recorded for 20 sec. The data was inspected with Palmist software^5, and data points affected by initial fluorescence quenching or photobleaching were eliminated. The fluorescent response for each sample was normalized to the initial fluorescence using Palmist software to provide the values of thermophoresis (Fn). The resulting data was used to generate a plot of the change in thermophoresis (Fn-Fn0, where Fn=thermophoresis and Fn0=thermophoresis response in unbound range) versus concentration of the ligand. GraphPad Prism v. 8.3.0 software was used to fit the resulting data to a mass action equation for a specific binding with Hill slope, solving for KD: Fn-Fn0═Fmax·[L]^n/(KD^n+[L]^n), where Fmax=maximum amplitude of thermophoresis, [L]=concentration of the ligand at a specific point, KD=dissociation constant, nH=Hill Coefficient.

The target of data set [1] is T2, Nurr1 LBD Arg563Ala + His516Ala (Homo sapiens, UniProt P43354, H516A/R563A).
T2 construct: Mutants of LAP2 Nurr1 were prepared by GenScript starting from LAP2 Nurr1 vector; made in house
T2 sequence (P43354 with tags, fused parts or gaps H516A/R563A): T1 sequence (P43354 with tags, fused parts or gaps R563A) with H180A
The experiment in a line: MST binding to Arg563Ala + His516Ala double mutant Nurr1 LBD. Conditions: for Amplitude: Table 1, MST amplitude, H516A/R563A; for Response Amplitude: Table 2, MST, Arg563Ala + His516Ala. The procedure:
as §1, §2, §3

A further data set deals with T3, Nurr1 LBD (wildtype) (Homo sapiens, UniProt P43354).
T3 construct: made in house
The experiment in a line: Microscale thermophoresis (MST) binding to wildtype Nurr1 LBD. The settings on record: for Binding to the Nurr1 LBD (in words): MST; for Kd: read-out: KD; for Amplitude: Table 1, MST amplitude, WT; for Response Amplitude: Table 2, MST, Wildtype. The procedure: as §2, §3
To investigate the potential impact of compound nano-aggregation on binding affinity, we used dynamic light scattering to inspect the aggregation of 5-chlorindole in solution and repeated the MST binding experiments in the presence of increasing concentrations of the surfactant Pluoronic F127 (FIGS. 12A-12D). […] As well, increasing concentrations of the surfactant Pluronic F127 had small effects (<2-fold) on the affinity of 5-chloroindole for the Nurr1 LBD (FIGS. 12A-12D).

Setting [2] is: Table 1, H516A/R563A relative to WT.

Positions count from the first letter of the chain named. Entries after “also recorded” stand apart in the source; their conditions may differ. Read-outs that look alike come from different tables or passages of the source. A value given as a limit tells only on which side of the number the result lay.

T3 sequence (P43354 with tags, fused parts or gaps): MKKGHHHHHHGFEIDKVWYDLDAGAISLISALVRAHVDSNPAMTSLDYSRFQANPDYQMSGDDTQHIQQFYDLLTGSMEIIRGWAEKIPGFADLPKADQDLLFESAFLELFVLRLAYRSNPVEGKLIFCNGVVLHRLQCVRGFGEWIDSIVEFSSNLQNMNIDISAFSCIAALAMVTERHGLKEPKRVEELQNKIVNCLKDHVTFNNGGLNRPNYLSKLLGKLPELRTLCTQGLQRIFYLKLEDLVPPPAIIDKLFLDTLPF

For the compound `Brc1ccc2[nH]ccc2c1` [5-bromoindole], the “Cytotoxicity / cell viability” value with MN9D cells is listed as “somewhat toxic to cells under certain conditions”. In addition, the “Binding to Arg563Ala mutant Nurr1 LBD (in words)” value at Nurr1 LBD Arg563Ala (MST) is “completely eliminated”. Also, the results for the Amplitude (at Nurr1 LBD Arg563Ala; in data set [1]; on Nurr1 LBD (wildtype)) were at most 10, “- (≤10)” and 72 + 8, respectively. In addition, the “Amplitude (% change)” value on Nurr1 LBD Arg563Ala (Table 1, R563A relative to WT) is given as at least −86%; in data set [1] (setting [2]), at least −86%; on Nurr1 LBD (wildtype) (Table 1, WT (reference)), 0. The “Response Amplitude” value at Nurr1 LBD Arg563Ala is recorded as ≤10 (****); in data set [1], ≤10 (****); at Nurr1 LBD (wildtype), 50 + 4. For the same compound, the “Binding to Arg563Ala + His516Ala mutant Nurr1 LBD (in words)” value in data set [1] (MST) was “completely eliminated”. For the same compound, the “Binding to the Nurr1 LBD (in words)” value on Nurr1 LBD (wildtype) was “saturable binding”. The Kd at Nurr1 LBD (wildtype) (Nurr1 LBD) turned out to be 5 µM; at Nurr1 LBD (wildtype) (Table 1, Nurr1 variant WT) it was 10 µM.
For `Clc1ccc2[nH]ccc2c1` [5-chloroindole], in the data set with MN9D cells, the “Cytotoxicity / cell viability” value is on record as “no significant effect on cell viability; also recorded: not cytotoxic; also recorded: non-cytotoxic”. Also, the Amplitude is given as 23 + 2 at Nurr1 LBD Arg563Ala, 26 + 2 in data set [1] and 68 + 4 on Nurr1 LBD (wildtype). Moreover, the Kd on Nurr1 LBD Arg563Ala (Table 1, Nurr1 variant R563A, read-out: KD) turned out to be 13 µM; at Nurr1 LBD Arg563Ala (Table 2, Arg563Ala, read-out: Affinity (KD)), 8.3 µM; in data set [1] (Table 1, Nurr1 variant H516A/R563A, read-out: KD), 8 µM; in data set [1] (Table 2, Arg563Ala + His516Ala, read-out: Affinity (KD)) it was 7.3 µM; at Nurr1 LBD (wildtype) (0.2% Pluronic F127) it was 8.3 ± 0.7 µM; on Nurr1 LBD (wildtype) (0.5% Pluronic F127), 10.9 ± 0.3 µM. For the same compound, the Kd on Nurr1 LBD (wildtype) (1.0% Pluronic F127) was 9.1 ± 0.4 µM; at Nurr1 LBD (wildtype) (Nurr1 LBD), 15 µM; at Nurr1 LBD (wildtype) (Table 1, Nurr1 variant WT), 25 µM. In addition, the “Amplitude (% change)” value on Nurr1 LBD Arg563Ala (Table 1, R563A relative to WT) is −66%; in data set [1] (setting [2]), −62%. Also, the “KD (% change)” value on Nurr1 LBD Arg563Ala (Table 1, R563A relative to WT) was −48%; in data set [1] (setting [2]), −68%. The “Response Amplitude” value at Nurr1 LBD Arg563Ala is on record as 19 + 2 (****); in data set [1], 23 + 1 (****); on Nurr1 LBD (wildtype), 54 + 2. Further, the “Hill coefficient nH” value at Nurr1 LBD (wildtype) (0.1% Pluronic F127) is recorded as 2; at Nurr1 LBD (wildtype) (0.2% Pluronic F127) it was 2; at Nurr1 LBD (wildtype) (0.5% Pluronic F127), 1; on Nurr1 LBD (wildtype) (1.0% Pluronic F127) it was 1. For the same compound, on Nurr1 LBD (wildtype), the “Binding to the Nurr1 LBD (in words)” value is “saturable binding; also recorded: comparable to DHI”.
